Measurements from US6464978B1, “Vaccination and methods against multiple sclerosis resulting from pathogenic responses by specific T cell populations” (The Immune Response Corporation, priority 1989, dated 2002).
“And” between values parts separate entries of the source, which are not always exact repeats. Equal entries are not always repeated. “Also recorded” adds a separate entry of the source.

Columns and labels:
[1] = tested on: EAE; test: Vaccination against EAE in the Lewis rat model, daily clinical scoring after MBP challenge; assay type: in vivo, Lewis rats; set-up: key to EAE clinical score, Days After Challenge 18 / EAE clinical score, Days After Challenge 10 / EAE clinical score, Days After Challenge 11 / EAE clinical score, Days After Challenge 12 / EAE clinical score, Days After Challenge 13 / EAE clinical score, Days After Challenge 14 / EAE clinical score, Days After Challenge 15 / EAE clinical score, Days After Challenge 16 / EAE clinical score, Days After Challenge 17 / EAE clinical score, Days After Challenge 19 / EAE clinical score, Days After Challenge 20: —: no signs; 1: limp tail; 2: hind leg weakness; 3: hind leg paralysis; conditions: for EAE clinical score, Days After Challenge 10: day 10; for EAE clinical score, Days After Challenge 11: day 11; for EAE clinical score, Days After Challenge 12: day 12; for EAE clinical score, Days After Challenge 13: day 13; for EAE clinical score, Days After Challenge 14: day 14; for EAE clinical score, Days After Challenge 15: day 15; for EAE clinical score, Days After Challenge 16: day 16; for EAE clinical score, Days After Challenge 17: day 17; for EAE clinical score, Days After Challenge 18: day 18
Description: Female Lewis rats, (Charles River Laboratories, Raleigh-Durham, N.C.) were immunized in each hind foot pad with 50 μg of guinea pig myelin basic protein emulsified in complete Freund's adjuvant. The first signs of disease were typically observed 9-11 days post-immunization. Disease severity is scored on a three point scale as follows: 1=limp tail; 2=hind leg weakness; 3=hind leg paralysis. Following a disease course of approximately four to six days, most rats spontaneously recovered and were refractory to subsequent EAE induction.
[…]. KLH-VDJ conjugate was administered at a dose equivalent to 10 μg of KLH per rat. Twenty-nine days later each rat was challenged with 50 μg of guinea pig myelin basic protein in complete Freund's adjuvant in the front footpads. Animals were monitored daily beginning at day 9 for clinical, signs of EAE and were scored as described above.
The preparation, administration and evaluation of these vaccines were conducted as described in Examples I through III with the following exceptions: 50 μg of the individual VDJ peptides were incorporated into vaccine formulations containing CFA; neither vaccinations in IFA nor vaccinations with peptides conjugated to KLH were conducted. Control animals were untreated prior to MBP challenge as in Example III or were vaccinated with emulsions of PBS and CFA to assess the protective effect of adjuvant alone. […]

[2] = tested on: EAE; test: Histologic examination of the CNS of vaccinated, MBP-challenged rats; assay type: in vivo; conditions: Lewis rats, 50 μg peptide in CFA, MBP challenge
Excerpt: Disease was characterized by severe paralysis and wasting, persisted for 4 to 6 days and spontaneously remitted.
Even sub-clinical signs of disease were abrogated.

[3] = Lewis rats, 50 μg peptide in CFA, MBP challenge
[4] = one rat per line, 50 μg rat VDJ peptide in CFA
[5] = one rat per line, 50 μg JαTA39 peptide in CFA
[6] = one rat per line, 5 μg VDJ or KLH-VDJ equivalent to 10 μg KLH, in IFA or CFA, hind footpads, MBP challenge 29 days later
[7] = one rat per line, 50 μg Vβ8 peptide in CFA

Sequence | protection against clinical EAE (animals protected) [1, 3] | EAE clinical score, Days After Challenge 10 [1, 4] | EAE clinical score, Days After Challenge 11 [1, 4] | EAE clinical score, Days After Challenge 12 [1, 4] | EAE clinical score, Days After Challenge 13 [1, 4] | EAE clinical score, Days After Challenge 14 [1, 4] | EAE clinical score, Days After Challenge 15 [1, 4] | EAE clinical score, Days After Challenge 16 [1, 4] | EAE clinical score, Days After Challenge 17 [1, 4] | EAE clinical score, Days After Challenge 18 [1, 4] | onset, severity and duration of EAE [1, 3] | other results
A S S D - S S N T E (ASSDSSNTE) [IR9b] | complete protection in all four animals | — | — | — | — | — | — | — | — | — |  | histologic lesions / T cell infiltration of the CNS [2]: no histologic lesions characteristic of disease were found in any of the four animals
C A S S D - S G N - V L Y F G E G S R (CASSDSGNVLYFGEGSR) [IR3] |  | 1 and — (2×) | 3 and — (2×) | 3 and 2 and — | 3 (2×) and — | 2 and 3 and — | — | — | — | — | delays in onset were observed in some; also recorded: others showed both delayed onset as well as decreased severity and/or duration of disease | 
C A S S D - S G N T E V F F G K (CASSDSGNTEVFFGK) [IR2] |  | — | — | 1 and — (2×) | 3 and — (2×) | 3 and 2 and 1 | 3 and 2 and — | — (2×) and 3 | — (2×) and 3 | — | delays in onset were observed in some; also recorded: others showed both delayed onset as well as decreased severity and/or duration of disease | 
RFGAGTRLTVK [IR5] | Two of three animals were totally protected |  |  |  |  |  |  |  |  |  | in the third, disease onset was markedly delayed | effectiveness of vaccination compared with other peptides [1, 3]: more effective than those observed with the mouse VDJ peptide or the Vβ8 peptide; EAE clinical score, Days After Challenge 10 [1, 5]: —; EAE clinical score, Days After Challenge 11 [1, 5]: —; EAE clinical score, Days After Challenge 12 [1, 5]: —; EAE clinical score, Days After Challenge 13 [1, 5]: —; EAE clinical score, Days After Challenge 14 [1, 5]: —; EAE clinical score, Days After Challenge 15 [1, 5]: 2 and — (2×); EAE clinical score, Days After Challenge 16 [1, 5]: 1 and — (2×); EAE clinical score, Days After Challenge 17 [1, 5]: 1 and — (2×); EAE clinical score, Days After Challenge 18 [1, 5]: 1 and — (2×); EAE clinical score, Days After Challenge 19 ([1]; day 19, one rat per line, 50 μg JαTA39 peptide in CFA): 1 and — (2×); EAE clinical score, Days After Challenge 20 ([1]; day 20, one rat per line, 50 μg JαTA39 peptide in CFA): —; histologic lesions / T cell infiltration of the CNS [2]: the two animals which were completely protected showed no histologic evidence of T cell infiltration of the CNS
SGDAGGGYE [VDJ (IFA), free VDJ peptide in PBS emulsified with incomplete Freund's adjuvant] |  |  |  |  |  |  |  |  |  |  |  | EAE clinical score, Days After Challenge 10 [1, 6]: —; EAE clinical score, Days After Challenge 11 [1, 6]: —; EAE clinical score, Days After Challenge 12 [1, 6]: 2 and 1 and —; EAE clinical score, Days After Challenge 13 [1, 6]: 3; EAE clinical score, Days After Challenge 14 [1, 6]: 3; EAE clinical score, Days After Challenge 15 [1, 6]: 3; EAE clinical score, Days After Challenge 16 [1, 6]: — and 2 (2×); EAE clinical score, Days After Challenge 17 [1, 6]: —; EAE clinical score, Days After Challenge 18 [1, 6]: —
DMGHGLRLIHYSYDVNSTEK [IR7] | One animal was completely protected |  |  |  |  |  |  |  |  |  | Delayed onset as well as decreased severity and duration of disease was observed in one animal | EAE clinical score, Days After Challenge 10 [1, 7]: —; EAE clinical score, Days After Challenge 11 [1, 7]: —; EAE clinical score, Days After Challenge 12 [1, 7]: 1 and — (2×); EAE clinical score, Days After Challenge 13 [1, 7]: 2 and — (2×); EAE clinical score, Days After Challenge 14 [1, 7]: 3 and 1 and —; EAE clinical score, Days After Challenge 15 [1, 7]: 3 and 1 and —; EAE clinical score, Days After Challenge 16 [1, 7]: 3 and — (2×); EAE clinical score, Days After Challenge 17 [1, 7]: —; EAE clinical score, Days After Challenge 18 [1, 7]: —
C A S S D - S S N T E V F F G K (CASSDSSNTEVFFGK) [IR1] |  | — | — | — | 2 and — and 1 | 1 | — and 3 and 1 | — (2×) and 1 | — | — | delays in onset were observed in some; also recorded: others showed both delayed onset as well as decreased severity and/or duration of disease | 
SGDAGGGYE [VDJ (CFA), free VDJ peptide in PBS emulsified with complete Freund's adjuvant] |  |  |  |  |  |  |  |  |  |  |  | EAE clinical score, Days After Challenge 10 [1, 6]: —; EAE clinical score, Days After Challenge 11 [1, 6]: —; EAE clinical score, Days After Challenge 12 [1, 6]: —; EAE clinical score, Days After Challenge 13 [1, 6]: 1 and — (2×); EAE clinical score, Days After Challenge 14 [1, 6]: 3 and 1 and —; EAE clinical score, Days After Challenge 15 [1, 6]: 3 and 1 and —; EAE clinical score, Days After Challenge 16 [1, 6]: 3 and 1 and —; EAE clinical score, Days After Challenge 17 [1, 6]: 2 and — (2×); EAE clinical score, Days After Challenge 18 [1, 6]: —
